Data reported in PMC10582335 (Frontiers in Pharmacology, 2023).

What was measured:
Cyp3a1 mRNA (CYP3A4) = test: qRT-PCR of mRNA expression in rat tissues after multiple-dose almonertinib; assay type: in vivo; settings: rats given almonertinib for nine consecutive days, n = 3
Procedure: (§1) Sixty healthy rats were randomly divided into ten groups (n = 6). […] Blood samples were centrifuged at 3,500 g for 10 min, and then the supernatant was gathered and stored in a −80°C refrigerator. After, rat intestine, kidney and liver tissues were harvested for molecular analysis on the ninth or fifth day after treatment with the corresponding drugs for each group. The tissues were placed immediately at −80°C.
(§2) qRT-PCR analysis was used to determine mRNA levels of Abcb1a, Abcg2 and Cyp3a1 in the liver and intestines, and Abcb1a and Abcg2 in the kidney of rats. Total RNA was isolated from frozen liver, intestine and kidney samples using TRNzol Universal according to the manufacturer’s instructions. A Bio Tek Epoch (Bio Tek Instruments, Inc., Winooski, VT, United States) was employed to quantify the purity and concentration of the total RNA based on the ratio of the absorbance between 260 and 280 nm. RNA samples of 1 µg were transformed to complementary DNA (cDNA) using the FastKing RT Kit. The real-time PCR assays were accomplished using a two-step amplification method based on the recommendations in a SLAN-96S Real-Time PCR system (Shanghai Hongshi Medical Technology Co., Ltd. Shanghai, China). […] was used as an internal control, and the PCR cycling criteria were as follows: 95°C for 15 min, then 40 cycles of 95°C for 10, and 60°C for 32 s.

Abcg2 mRNA (BCRP) = test: as above; assay type: in vivo; settings: intestine, rats given almonertinib for nine consecutive days, n = 3
Procedure: as §1, §2

Q: With `C=CC(=O)Nc1cc(Nc2nccc(-c3cn(C4CC4)c4ccccc34)n2)c(OC)cc1N(C)CCN(C)C` [almonertinib, Almonertinib] as the compound, how does the “inhibition of mRNA expression of Cyp3a1” value (Cyp3a1 mRNA (CYP3A4); intestine) read?
A: The value was 96.9%.

Q: And the “inhibition of mRNA expression of Cyp3a1” value (Cyp3a1 mRNA (CYP3A4); liver)?
A: Its value is 45.5%.

Q: And the “inhibition of mRNA expression of Abcg2” value (Abcg2 mRNA (BCRP))?
A: Its value is 28.0%.
